Structures can show the parent of a compound that is named as a salt. Where two headings read alike, the source gives them in different places.
System: PRKACA-PRKAR2A interaction (SmBiT-PRKACA / LgBiT-PRKAR2A), protein kinase A
Parameters: NanoLuc complementation counter-screen in cell extract, PRKACA with PRKAR2A, loss of luminescence, detects NanoLuc interference
Conditions: 0.5 h, 20 µM, inhibitor
[1] = counter-screen for NanoLuc interference
[2] = counter-screen for NanoLuc interference, Inh (PKA)

| Structure (SMILES) | Inh (PKA) [1] [%] | other results |
| --- | --- | --- |
| CCN(CC)C(=O)c1ccc(C2=CC3(CCNCC3)Oc3cccc(O)c32)cc1 [UM0141492:01, ADL5859 HCl] | 2.676 | – |
| CC[C@H](Nc1ncnc2[nH]cnc12)c1nc2cccc(F)c2c(=O)n1-c1ccccc1 [UM0141495:01, CAL-101 (Idelalisib, GS-1101)] | 7.222 | – |
| CN1CC(=O)N2[C@H](c3ccc4c(c3)OCO4)c3[nH]c4ccccc4c3C[C@@H]2C1=O [UM0133276:02, Tadalafil] | 5.88 | – |
| Nc1nc2[nH]cc(CCc3ccc(C(=O)N[C@@H](CCC(=O)O)C(=O)O)cc3)c2c(=O)[nH]1 [UM0141829:01, Pemetrexed] | – | Inh (PKA) [2]: -0.0222% |
| CNCCC=C1c2ccccc2CCc2ccccc21 [UM0118370:03, Nortriptyline (hydrochloride)] | 4.028 | – |
| C/C(=N\NC(=S)N1CCC1)c1ccccn1 [UM0141763:01, NSC 319726] | 3.72 | – |
| O=c1oc2cc(O)ccc2s1 [UM0120621:02, Tioxolone] | 1.741 | – |
| CNC[C@H](O)c1cccc(O)c1 [UM0120096:03, Phenylephrine HCl] | 0.7851 | – |
| COc1ccc([C@H]2CNC(=O)C2)cc1OC1CCCC1 [UM0141786:02, S- (+)-Rolipram] | 3.135 | – |
| CC(O)c1cc(C(=O)N[C@@H](C)Cn2ccc(-c3ccc(C#N)c(Cl)c3)n2)n[nH]1 (stereo partly shown) [UM0142049:01, ODM-201] | 2.703 | – |
| N[C@@H](Cc1ccc(N(CCCl)CCCl)cc1)C(=O)O [UM0132725:02, Melphalan] | – | Inh (PKA): 3.23 |
| CN([C@@H](Cc1ccc(OS(=O)(=O)c2cccc3cnccc23)cc1)C(=O)N1CCN(c2ccccc2)CC1)S(=O)(=O)c1cccc2cnccc12 [UM0141935:01, KN-62] | 9.099 | – |
| Cc1ccc(Cl)c(Nc2ccccc2C(=O)O)c1Cl [UM0133818:02, Meclofenamate Sodium] | 21.07 | – |
| CN1CCN(c2ccc(C(=O)Nc3n[nH]c4ccc(Cc5cc(F)cc(F)c5)cc34)c(NC3CCOCC3)c2)CC1 [UM0142673:01, Entrectinib] | 20.65 | – |
| CN(C)NC(=O)CCC(=O)O [UM0056235:02, Daminozide] | – | Inh (PKA): 2.677% |
| COCCOC(=O)C1=C(C)NC(C)=C(C(=O)OC(C)C)C1c1cccc([N+](=O)[O-])c1 (stereo not shown) [UM0142061:01, Nimodipine] | 89.11 | – |
| C=CC(=O)Nc1cccc(C)c1Nc1ncc2cc(-c3c(Cl)c(OC)cc(OC)c3Cl)ccc2n1 [UM0142122:01, BLU9931] | 48.23 | – |
| CC[C@@H]1/C=C(\C)C[C@H](C)C[C@H](OC)[C@H]2O[C@@](O)(C(=O)C(=O)N3CCCC[C@H]3C(=O)O[C@H](/C(C)=C/[C@@H]3CC[C@@H](O)[C@H](OC)C3)[C@H](C)[C@@H](O)CC1=O)[C@H](C)C[C@@H]2OC [UM0141519:01, Ascomycin(FK 520)] | – | Inh (PKA): 13.3 |
| O=C(/C=C\n1cnc(-c2cc(C(F)(F)F)cc(C(F)(F)F)c2)n1)N1CC(F)(F)C1 [UM0142267:01, KPT-276] | 9.545 | – |
| CC(N)=NCc1cccc(CN)c1 [UM0142778:01, 1400W dihydrochloride] | -1.118 | – |

| Structure (SMILES) | Inh (PKA) [1] [%] | other results |
| --- | --- | --- |
| O=C(O)c1ccc(N2C(=O)/C(=C\c3ccc(-c4ccc([N+](=O)[O-])cc4)o3)C=C2c2ccccc2)cc1 [UM0142546:01, 4E1RCat] | 43.25 | – |
| CCCCCOC(=O)Nc1nc(=O)n([C@@H]2O[C@H](C)[C@@H](O)[C@H]2O)cc1F [UM0142109:01, Capecitabine] | 3.507 | – |
| Cn1c(CCCC(=O)O)nc2cc(N(CCCl)CCCl)ccc21 [UM0141439:01, Bendamustine HCl] | -0.1879 | – |
| COCCOC(=O)C1=C(C)NC(C)=C(C(=O)OC/C=C/c2ccccc2)C1c1cccc([N+](=O)[O-])c1 (stereo not shown) [UM0133650:02, Cilnidipine] | 81.64 | – |
| COc1ccc(-n2c(SCCCN3C(=O)c4cccc5cccc(c45)C3=O)nnc2-c2ccncc2)cc1 [UM0141857:01, WIKI4] | 17.99 | – |
| Cn1c(=O)c2[nH]cnc2n(C)c1=O [UM0118147:03, Aminophylline] | 0.6753 | – |
| CC(C)=CCCC(C)(O)C1CCC2(C)C1C(O)CC1C3(C)CCC(O)C(C)(C)C3CCC12C (stereo not shown) [UM0142847:01, Protopanaxdiol] | 2.916 | – |
| CCN(CC)C(=S)SSC(=S)N(CC)CC [UM0118234:04, Disulfiram] | 21.36 | – |
| O=c1oc2c(O)c(O)cc3c(=O)oc4c(O)c(O)cc1c4c23 [UM0119370:03, Ellagic acid] | 2.639 | – |
| CCOC(=O)C1=C[C@]2(CC)CCCN3CCc4c(n1c1ccccc41)[C@@H]32 [UM0142468:01, Vinpocetine] | 12.65 | – |
| CC(=O)Nc1ccc(C(=O)Nc2ccccc2N)cc1 [UM0128575:02, CI994 (Tacedinaline)] | -1.752 | – |
| CC1=CC(=O)c2c(O)cccc2C1=O [UM0133960:02, Plumbagin] | 19.95 | – |
| CC(C)OC(=O)OCOP(=O)(CO[C@H](C)Cn1cnc2c(N)ncnc21)OCOC(=O)OC(C)C [UM0141413:01, Tenofovir Disoproxil Fumarate] | 0.7211 | – |
| CNC(=O)Nc1ccc(-c2nc(N3CC4CCC(C3)O4)c3cnn(C4CCC5(CC4)OCCO5)c3n2)cc1 [UM0142336:01, WYE-125132 (WYE-132)] | 31.62 | – |
| CNC(=O)c1cc(Oc2ccc(NC(=O)Nc3ccc(Cl)c(C(F)(F)F)c3)cc2)ccn1 [UM0130993:02, Sorafenib Tosylate] | – | Inh (PKA) [2]: 7.099% |
| COc1ccc(C[C@H](NC(=O)[C@H](C)NC(=O)CN2CCOCC2)C(=O)N[C@@H](Cc2ccccc2)C(=O)[C@@]2(C)CO2)cc1 [UM0141665:01, ONX-0914 (PR-957)] | 2.946 | – |
| Cc1cc2c(C(=O)NC[C@H](C)c3ccccc3)c(O)c(O)cc2c(O)c1-c1c(C)cc2c(C(=O)NC[C@H](C)c3ccccc3)c(O)c(O)cc2c1O [UM0141759:01, Sabutoclax] | 12.84 | – |
| C[C@@H]1CCN(C(=O)CC#N)C[C@@H]1N(C)c1ncnc2[nH]ccc12 [UM0128176:02, Tofacitinib (CP-690550,Tasocitinib)] | – | Inh (PKA) [2]: -2.944% |
| CC(=O)c1c(C)c2cnc(Nc3ccc(N4CCNCC4)cn3)nc2n(C2CCCC2)c1=O [UM0141999:01, Palbociclib (PD0332991) Isethionate] | – | Inh (PKA) [2]: 9.751% |
| CNC[C@H](O)c1ccc(O)c(O)c1 [UM0142209:01, L-Adrenaline] | 7.349 | – |

| Structure (SMILES) | Inh (PKA) [1] [%] | other results |
| --- | --- | --- |
| Cc1c(CN2CCN(S(C)(=O)=O)CC2)sc2c(N3CCOCC3)nc(-c3cnc(N)nc3)nc12 [UM0142817:01, GNE-477] | 0.346 | – |
| C=CCn1c(=O)c2cnc(Nc3ccc(N4CCN(C)CC4)cc3)nc2n1-c1cccc(C(C)(C)O)n1 [UM0135452:02, MK-1775] | 7.841 | – |
| O=C(c1cc(Cc2n[nH]c(=O)c3ccccc23)ccc1F)N1CCN(C(=O)C2CC2)CC1 [UM0135473:02, Olaparib (AZD2281, Ku-0059436)] | 2.339 | – |
| Cc1ccc(C(=O)Cn2c3c(sc2=N)CCCC3)cc1 [UM0134099:02, Pifithrin-?] | 9.08 | – |
| N#C[C@@H]1C[C@@H]2C[C@@H]2N1C(=O)[C@@H](N)C12CC3CC(CC(O)(C3)C1)C2 [UM0142110:01, Saxagliptin] | 1.3 | – |
| COC(=O)[C@H](Cc1cccc(C(=N)N)c1)[C@@H](C)NC(=O)c1ccc(-c2cc[n+]([O-])cc2)cc1 [UM0141597:01, Otamixaban] | 3.513 | – |
| Cn1c(=O)cc(N2CCC[C@@H](N)C2)n(Cc2ccccc2C#N)c1=O [UM0141514:01, Alogliptin Benzoate] | – | Inh (PKA) [2]: 3.371% |
| Cc1cc([C@@H](C)Nc2ccccc2C(=O)O)c2nc(N3CCOCC3)cc(=O)n2c1 [UM0141893:01, AZD6482] | 55.75 | – |
| C[N+]1(C)CCC(=C(c2ccccc2)c2ccccc2)CC1 [UM0118457:03, Diphemanil Methylsulfate] | -0.1303 | – |
| Cc1ccc(NC(=O)c2ccc(CN3CCN(C)CC3)cc2)cc1Nc1nccc(-c2cccnc2)n1 [UM0130978:02, Imatinib Mesylate (STI571)] | – | Inh (PKA) [2]: 10.22% |
| O=C(NC(NC(=S)Nc1ccc(F)c([N+](=O)[O-])c1)C(Cl)(Cl)Cl)C(c1ccccc1)c1ccccc1 (stereo not shown) [UM0142099:01, CGK733] | 35.68 | – |
| CCC(=O)Nc1cccc(Oc2nc(Nc3ccc(N4CCN(C)CC4)cc3OC)ncc2Cl)c1 [UM0142226:01, WZ4003] | 29.29 | – |
| Cc1cccc(C(C)c2c[nH]cn2)c1C (stereo not shown) [UM0142219:01, Medetomidine HCl] | 7.933 | – |
| COCCCC/C(=N\OCCN)c1ccc(C(F)(F)F)cc1 [UM0133722:02, Fluvoxamine maleate] | 2.345 | – |
| COc1ccc2cc(-c3nc(-c4ccc([S+](C)[O-])cc4)[nH]c3-c3ccncc3)ccc2c1 (stereo not shown) [UM0141919:01, Tie2 kinase inhibitor] | 68.85 | – |
| O=C(O)c1ccnc(C(=O)O)c1 [UM0128207:03, 2,4-Pyridinedicarboxylic Acid] | 1.396 | – |
| BrC1C(Br)C(Br)C(Br)C(Br)C1Br (stereo not shown) [UM0141851:01, 1,2,3,4,5,6-Hexabromocyclohexane] | 6.156 | – |
| CC(C)(F)C[C@H](N[C@@H](c1ccc(-c2ccc(S(C)(=O)=O)cc2)cc1)C(F)(F)F)C(=O)NC1(C#N)CC1 [UM0141461:01, Odanacatib (MK-0822)] | 3.507 | – |

From paper PMC9995496, “A screen for MeCP2-TBL1 interaction inhibitors using a luminescence-based assay” (Scientific Reports, 2023)
